Experimental data from paper PMC4585962, “A peptide factor secreted by Staphylococcus pseudintermedius exhibits properties of both bacteriocins and virulence factors” (Scientific Reports, 2015).
No end group written: not given here. *: point of attachment. For = O=C*

Columns and labels:
[1] = tested on: Staphylococcus intermedius R-2725; assay: MIC, microdilution assay; assay type: cell-based; conditions: broth microdilution (CLSI), MHB, overnight 37 °C, OD 600 nm; mean of three independent measurements
Experimental: (§1) The microbicidal activity of BacSp222 was determined using the microdilution method in compliance with Clinical and Laboratory Standards Institute (CLSI, for bacteria) guidelines M7-A7[57] and in compliance with the European Committee on Antimicrobial Susceptibility Testing - Subcommittee on Antifungal Susceptibility Testing (EUCAST-AFST, for fungi)[58]. Briefly, the microorganisms were cultivated in dedicated liquid media to reach the early exponential phase or, in the case of Streptococcus spp., grown overnight on agar MHB supplemented with 2.5% (v/v) lysed horse blood (LHB). Subsequently, the microorganisms were diluted to 1 × 10^6 CFU/ml (estimated using an Eddy Jet 2 automatic spiral plater, IUL) in MHB; in MHB supplemented with 5% (v/v) LHB (for streptococci); or, in the case of Candida albicans, in RPMI-1640 medium (Thermo) without L-Glu and phenol red, supplemented with 0.6 g/l L-Glu, 34.53 g/l 3-(N-morpholino)propanesulphonic acid and 18 g/l glucose, pH 7.0. Fifty microliters of microorganism suspension were mixed with an equal volume of appropriate medium containing serial 2- or 1.5-fold dilutions of BacSp222. After the cultures were incubated overnight at 37 °C, the optical density (OD) at 600 nm was measured. The minimal inhibitory concentration (MIC), calculated as a mean value from three independent measurements, was defined as the minimum peptide concentration for which an increase in OD was not observed compared to uninoculated broth.

[2] = tested on: Serratia marcescens ATCC 274; assay: MIC, microdilution assay; assay type: cell-based; conditions: broth microdilution (CLSI), MHB, overnight 37 °C, OD 600 nm; highest concentration tested 100 μM
Experimental: as §1

[3] = tested on: Staphylococcus intermedius ATCC 29663; assay: MIC, microdilution assay; assay type: cell-based; conditions: broth microdilution (CLSI), MHB, overnight 37 °C, OD 600 nm; mean of three independent measurements
Experimental: as §1

[4] = tested on: Staphylococcus aureus KB/8658; assay: MIC, microdilution assay; assay type: cell-based; conditions: broth microdilution (CLSI), MHB, overnight 37 °C, OD 600 nm; mean of three independent measurements
Experimental: as §1

[5] = tested on: Lactococcus lactis subsp. lactis ŁOCK 0871 strain 239; assay: MIC, microdilution assay; assay type: cell-based; conditions: broth microdilution (CLSI), MHB, overnight 37 °C, OD 600 nm; mean of three independent measurements
Experimental: as §1

[6] = tested on: Bacillus subtilis ATCC 6633; assay: MIC, microdilution assay; assay type: cell-based; conditions: broth microdilution (CLSI), MHB, overnight 37 °C, OD 600 nm; mean of three independent measurements
Experimental: as §1

[7] = tested on: Klebsiella pneumoniae ATCC 13886; assay: MIC, microdilution assay; assay type: cell-based; conditions: broth microdilution (CLSI), MHB, overnight 37 °C, OD 600 nm; highest concentration tested 100 μM
Experimental: as §1

[8] = tested on: Staphylococcus aureus ATCC 25923; assay: MIC, microdilution assay; assay type: cell-based; conditions: broth microdilution (CLSI), MHB, overnight 37 °C, OD 600 nm; mean of three independent measurements
Experimental: as §1

[9] = tested on: Staphylococcus aureus MRSA USA300 strain FPR3757; assay: MIC, microdilution assay; assay type: cell-based; conditions: broth microdilution (CLSI), MHB, overnight 37 °C, OD 600 nm; mean of three independent measurements
Experimental: as §1

[10] = tested on: Escherichia coli K12; assay: MIC, microdilution assay; assay type: cell-based; conditions: broth microdilution (CLSI), MHB, overnight 37 °C, OD 600 nm; highest concentration tested 100 μM
Experimental: as §1

[11] = tested on: Staphylococcus aureus DSM 26258 (CH91); assay: MIC, microdilution assay; assay type: cell-based; conditions: broth microdilution (CLSI), MHB, overnight 37 °C, OD 600 nm; mean of three independent measurements
Experimental: as §1

[12] = tested on: Streptococcus pyogenes PCM 465; assay: MIC, microdilution assay; assay type: cell-based; conditions: broth microdilution (CLSI), MHB with 5% lysed horse blood, overnight 37 °C, OD 600 nm; mean of three independent measurements
Experimental: as §1

[13] = tested on: Staphylococcus pseudintermedius 222; assay: MIC, microdilution assay; assay type: cell-based; conditions: bacteriocin-producing strain; broth microdilution (CLSI), MHB, overnight 37 °C, OD 600 nm; mean of three independent measurements
Experimental: as §1

[14] = tested on: Micrococcus luteus ATCC 4698; assay: MIC, microdilution assay; assay type: cell-based; conditions: broth microdilution (CLSI), MHB, overnight 37 °C, OD 600 nm; mean of three independent measurements
Experimental: as §1

[15] = tested on: Staphylococcus pseudintermedius LMG 22219; assay: MIC, microdilution assay; assay type: cell-based; conditions: nonproducer strain; broth microdilution (CLSI), MHB, overnight 37 °C, OD 600 nm; mean of three independent measurements
Experimental: as §1

[16] = tested on: RAW264.7 cells; assay: NO synthesis (nitrite, Griess reagent); assay type: cell-based, murine; conditions: 24 h
Experimental: (§2) The murine monocyte/macrophage cell line P388/D1 and murine macrophage-like cell line RAW264.7 were grown in a 96-well plate in DMEM supplemented with 5% (v/v) FBS. Prior to the experiment, the medium was replaced with fresh DMEM enriched with 2% (v/v) of FBS (negative control) or supplemented with 1) 100 ng/ml lipopolysaccharide (LPS, Sigma), 2) 10 ng/ml IFN [drawing 9] (R&D Systems), 3) 0.01–1000 nM BacSp222, or 4) BacSp222 combined with LPS or IFN [drawing 10] . The cells were then cultured for another 24 h to induce iNOS expression and nitric oxide synthesis. The nitrite levels were measured in culture medium by a nitrate assay performed on a microplate. One hundred microliters of cultured media was incubated with 100 μl of Griess reagent (1% (w/v) sulphanilic acid/0.1% (w/v) N-(1-naphtyl) ethylenediaminedihydrochloride (Sigma) in 2.5% (v/v) H3PO4) at room temperature for 10 min. Then, the absorbance was measured at 545 nm using a microplate reader (PowerWave X, BioTek Instruments). Before use, the solution of BacSp222 was tested for LPS contamination using an E-TOXATE assay kit (Sigma). The measurements ascertained that the level of LPS in 1 μM bacteriocin solution was equal to or less than 3 pg/ml.

[17] = tested on: P388D1 cells; assay: NO synthesis (nitrite, Griess reagent); assay type: cell-based, murine; conditions: 24 h
Experimental: as §2

[18] = 0.01–1000 nM BacSp222 with LPS 100 ng/ml
[19] = nanomolar concentrations of BacSp222 with IFNγ 10 ng/ml

Q: What does the source list for “For-MAGLLRFLLSKGRALYNWAKSHVGKVWEWLKSGATYEQIKEWIENALGWR [BacSp222]”?
A: MIC ± SD [1]: 1.20 ± 0.24 µM; MIC ± SD [2]: >100 µM; MIC ± SD [3]: 2.00 ± 0.00 µM; MIC ± SD [4]: 1.30 ± 0.00 µM; MIC ± SD [5]: 0.89 ± 0.00 µM; MIC ± SD [6]: 0.16 ± 0.00 µM; MIC ± SD [7]: >100 µM; MIC ± SD [8]: 1.00 ± 0.36 µM; MIC ± SD [9]: 0.89 ± 0.00 µM; MIC ± SD [10]: >100 µM; MIC ± SD [11]: 0.92 ± 0.23 µM; MIC ± SD [12]: 7.8 µM; MIC ± SD [13]: 2.1 µM; MIC ± SD [14]: 0.11 µM; MIC ± SD [15]: 0.16 µM; effect on LPS-induced NO production [16, 18]: did not affect; NO production after exposure to BacSp222 alone ([16]; 0.01–1000 nM, DMEM 2% FBS, nitrite at 545 nm): Only P388D1 cells were able to produce NO; NO release with BacSp222 together with IFNγ [16, 19]: released NO in a dose-dependent manner; effect on LPS-induced NO production [17, 18]: did not affect; NO production after exposure to BacSp222 alone ([17]; at 100 and 1000 nM, DMEM 2% FBS, nitrite at 545 nm): able to produce NO; NO release with BacSp222 together with IFNγ [17, 19]: released NO in a dose-dependent manner
